Reference: patent US20030187007A1, “Inhibitors of protein kinase for the treatment of disease” (priority 2001, published 2003)

Experiments:
[1] = system: HL-60(TB); assay: In vitro tumor cell efficacy test (SRB), Leukemia; format: cell-based; settings: Homo sapiens, 72 hours
[2] = system: RPMI-8226; assay: In vitro tumor cell efficacy test (SRB), Leukemia; format: cell-based; settings: Homo sapiens, RPMI-8226, Leukemia, 72 hours
[3] = system: EKVX; format: cell-based; settings: Homo sapiens, Non-Small Cell Lung Cancer, 72 hours
[4] = system: NCI-H460; format: cell-based; settings: Homo sapiens, NCI-H460, Non-Small Cell Lung Cancer, 72 hours
[5] = system: NCI-H522; format: cell-based; settings: Homo sapiens; NCI-H522, Non-Small Cell Lung Cancer, 72 hours
[6] = system: COLO 205; assay: In vitro tumor cell efficacy test (SRB), Colon Cancer; format: cell-based; settings: Homo sapiens, COLO 205, Colon Cancer, 72 hours
[7] = system: HCT-116; assay: as above; format: cell-based; settings: Homo sapiens; HCT-116, Colon Cancer, 72 hours
[8] = system: HCT-15; assay: as above; format: cell-based; settings: Homo sapiens; HCT-15, Colon Cancer, 72 hours
[9] = system: HT29; assay: as above; format: cell-based; settings: Homo sapiens, HT-29, 72 hours
[10] = system: SW-620; assay: as above; format: cell-based; settings: Homo sapiens, SW-620, Colon Cancer, 72 hours
[11] = system: SNB-75; assay: In vitro tumor cell efficacy test (SRB), CNS Cancer; format: cell-based; settings: Homo sapiens, SNB-75, CNS Cancer, 72 hours
[12] = system: LOX IMVI; assay: In vitro tumor cell efficacy test (SRB), Melonoma; format: cell-based; settings: Homo sapiens, 72 hours
[13] = system: SK-MEL-2; assay: In vitro tumor cell efficacy test (SRB), Melonoma; format: cell-based; settings: Homo sapiens, SK-MEL-2, Melonoma, 72 hours
[14] = system: IGROV1; assay: In vitro tumor cell efficacy test (SRB), Ovarian Cancer; format: cell-based; settings: Homo sapiens, IGROV-1, 72 hours
[15] = system: OVCAR-4; assay: as above; format: cell-based; settings: Homo sapiens, OVCAR-4, Ovarian Cancer, 72 hours
[16] = system: OVCAR-5; assay: as above; format: cell-based; settings: Homo sapiens; OVCAR-5, Ovarian Cancer, 72 hours
[17] = system: OVCAR-8; assay: as above; format: cell-based; settings: Homo sapiens, OVCAR-8, Ovarian Cancer, 72 hours
[18] = system: 786-0; assay: In vitro tumor cell efficacy test (SRB), Renal Cancer; format: cell-based; settings: Homo sapiens, 786-0, Renal Cancer, 72 hours
[19] = system: ACHN; assay: as above; format: cell-based; settings: Homo sapiens, 72 hours
[20] = system: RXF 393; assay: as above; format: cell-based; settings: Homo sapiens, RXF 393, Renal Cancer, 72 hours
[21] = system: TK-10; assay: as above; format: cell-based; settings: Homo sapiens; TK-10, Renal Cancer, 72 hours
[22] = system: DU-145; assay: In vitro tumor cell efficacy test (SRB), Prostate Cancer; format: cell-based; settings: Homo sapiens; DU-145, Prostate Cancer, 72 hours
[23] = system: MDA-MB-231/ATCC; assay: In vitro tumor cell efficacy test (SRB), Breast Cancer; format: cell-based; settings: Homo sapiens, 72 hours
[24] = system: HS 578T; assay: as above; format: cell-based; settings: Homo sapiens, 72 hours
[25] = system: MDA-MB-435; assay: as above; format: cell-based; settings: Homo sapiens, MDA-MB-435, Breast Cancer, 72 hours
[26] = system: MDA-N; assay: as above; format: cell-based; settings: Homo sapiens, 72 hours
[27] = system: BT-549; assay: as above; format: cell-based; settings: Homo sapiens; BT-549, Breast Cancer, 72 hours
[28] = system: T-47D; assay: as above; format: cell-based; settings: Homo sapiens, T47D, 72 hours
[29] = system: different cancer cell lines; assay: In vitro tumor cell efficacy test (SRB), mean over all cell lines; format: cell-based; settings: Mean over all cell lines of the table
[30] = system: OVCAR-3; assay: In vitro tumor cell efficacy test (SRB), Ovarian Cancer; settings: Homo sapiens, OVCAR-3, 72 h
[31] = read-out: Log (LC50) (the source's name) (converted)

`Nc1nccc(-c2cc(-c3ccc(O)cc3)ccc2O)n1` [3-(2-Amino-pyrimidin-4-yl)-biphenyl-4,4′-diol] showed a GI50 [1] of 126 nM, a CC50 [1, 31] of 79400 nM and a GI50 [2] of 200 nM. The CC50 [2, 31] was over 100000 nM, the GI50 [3] was 251 nM and the CC50 [3, 31] was over 100000 nM. It also gave a GI50 [4] of 251 nM, a CC50 [4, 31] of over 100000 nM and a GI50 [5] of 200 nM. For the same molecule, the LC50 [5] was over 100000 nM, the GI50 [6] was 7940 nM and the CC50 [6, 31] was over 100000 nM. For the same molecule, the GI50 [7] was 158 nM, the LC50 (concentration killing 50% of cells) [7] was over 100000 nM and the GI50 [8] was 126 nM. The LC50 [8] was over 100000 nM, the GI50 [9] was 3160 nM and the CC50 [9, 31] was over 100000 nM. The GI50 [10] was 316 nM, the CC50 [10, 31] was over 100000 nM and the GI50 [11] was 2000 nM. For the same molecule, the CC50 [11, 31] was over 100000 nM, the GI50 [12] was 200 nM and the CC50 [12, 31] was over 100000 nM. For the same molecule, the GI50 [13] was 200 nM, the CC50 [13, 31] was 3160 nM and the GI50 [14] was 251 nM. It also gave a CC50 [14, 31] of over 100000 nM, a GI50 [15] of 316 nM and a CC50 [15, 31] of over 100000 nM. It also gave a GI50 [16] of 2000 nM, an LC50 (50% lethal concentration) [16] of over 100000 nM and a GI50 [17] of 200 nM. The CC50 [17, 31] was over 100000 nM, the GI50 [18] was 251 nM and the CC50 [18, 31] was over 100000 nM. The GI50 [19] was 251 nM, the CC50 [19, 31] was over 100000 nM and the GI50 [20] was 1000 nM. It also gave a CC50 [20, 31] of 6310 nM, a GI50 [21] of 2000 nM and an LC50 [21] of over 100000 nM. The GI50 [22] was 794 nM, the LC50 [22] was over 100000 nM and the GI50 [23] was 251 nM. The CC50 [23, 31] was over 100000 nM, the GI50 [24] was 398 nM and the CC50 [24, 31] was over 100000 nM. For the same molecule, the GI50 [25] was 251 nM, the CC50 [25, 31] was over 100000 nM and the GI50 [26] was 251 nM. The CC50 [26, 31] was over 100000 nM, the GI50 [27] was 251 nM and the LC50 [27] was over 100000 nM. It also gave a GI50 [28] of 2000 nM, a CC50 [28, 31] of 50100 nM and a CC50 ([29]; read-out: Log (LC50) (M), Mean (converted)) of over 0.0001 M. For the same molecule, the GI50 ([29]; read-out: log (GI50) (M), Mean (converted)) was 3.16e-07 M, the CC50 ([30]; read-out: Log (LC50) (M) (converted)) was over 0.0001 M and the GI50 ([30]; read-out: log (GI50) (M) (converted)) was 2.51e-07 M.
